# Molecular target: T1, ppci1 (Aspergillus flavus, UniProt B8NRT5)
# T1 construct: E. coli BL21(DE3), modified pRSFDuet-1; N-terminal 6xHis tag removed with PreScission protease
# Experiment: chymotrypsin-coupled PPIase assay, absorbance at […] nm
# Type: biochemical
# Details: 15 °C, HEPES pH 8.0; substrate succinyl-AAPF-p-nitroanilide; figure labels traces FK506-CsA and FK506-Rap, possibly combined
# T1 sequence (B8NRT5 1-122): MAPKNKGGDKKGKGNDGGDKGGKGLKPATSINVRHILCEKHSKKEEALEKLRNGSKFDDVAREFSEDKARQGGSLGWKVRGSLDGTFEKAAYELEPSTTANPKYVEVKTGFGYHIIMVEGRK
row,SMILES,inhibition
1,"CO[C@H]1C[C@@H]2CC[C@@H](C)[C@@](O)(O2)C(=O)C(=O)N2CCCC[C@H]2C(=O)O[C@H]([C@H](C)C[C@@H]2CC[C@@H](O)[C@H](OC)C2)CC(=O)[C@H](C)/C=C(\C)[C@@H](O)[C@@H](OC)C(=O)[C@H](C)C[C@H](C)/C=C/C=C/C=C/1C [Rap, Rapamycin]","We found that FK506, CsA and Rapamycin inhibit the protein activity of ppci1"
2,"C=CC[C@@H]1/C=C(\C)C[C@H](C)C[C@H](OC)[C@H]2O[C@@](O)(C(=O)C(=O)N3CCCC[C@H]3C(=O)O[C@H](/C(C)=C/[C@@H]3CC[C@@H](O)[C@H](OC)C3)[C@H](C)[C@@H](O)CC1=O)[C@H](C)C[C@@H]2OC [FK506, Tacrolimus]",activity of ppci1 was inhibited by these aforementioned drugs with constantly decreased absorption
